Source: article PMC3416681, “The orthosteric agonist 2-chloro-5-hydroxyphenylglycine activates mGluR5 and mGluR1 with similar efficacy and potency” (2012)

Key:
mGluR5b = target: T1, mGluR5b (Rattus norvegicus, UniProt P31424); test: whole-cell patch clamp, calcium current inhibition in SCG neurons expressing the receptor; type: cell-based
T1 construct: gene Grm5; splice variant mGluR5b

mGluR1a = target: T2, mGluR1a (Rattus norvegicus, UniProt P23385); test: as above; type: cell-based
T2 construct: gene Grm1; splice variant mGluR1a (untagged and N-terminally myc-tagged, data combined)
T2 sequence (P23385 19-1199): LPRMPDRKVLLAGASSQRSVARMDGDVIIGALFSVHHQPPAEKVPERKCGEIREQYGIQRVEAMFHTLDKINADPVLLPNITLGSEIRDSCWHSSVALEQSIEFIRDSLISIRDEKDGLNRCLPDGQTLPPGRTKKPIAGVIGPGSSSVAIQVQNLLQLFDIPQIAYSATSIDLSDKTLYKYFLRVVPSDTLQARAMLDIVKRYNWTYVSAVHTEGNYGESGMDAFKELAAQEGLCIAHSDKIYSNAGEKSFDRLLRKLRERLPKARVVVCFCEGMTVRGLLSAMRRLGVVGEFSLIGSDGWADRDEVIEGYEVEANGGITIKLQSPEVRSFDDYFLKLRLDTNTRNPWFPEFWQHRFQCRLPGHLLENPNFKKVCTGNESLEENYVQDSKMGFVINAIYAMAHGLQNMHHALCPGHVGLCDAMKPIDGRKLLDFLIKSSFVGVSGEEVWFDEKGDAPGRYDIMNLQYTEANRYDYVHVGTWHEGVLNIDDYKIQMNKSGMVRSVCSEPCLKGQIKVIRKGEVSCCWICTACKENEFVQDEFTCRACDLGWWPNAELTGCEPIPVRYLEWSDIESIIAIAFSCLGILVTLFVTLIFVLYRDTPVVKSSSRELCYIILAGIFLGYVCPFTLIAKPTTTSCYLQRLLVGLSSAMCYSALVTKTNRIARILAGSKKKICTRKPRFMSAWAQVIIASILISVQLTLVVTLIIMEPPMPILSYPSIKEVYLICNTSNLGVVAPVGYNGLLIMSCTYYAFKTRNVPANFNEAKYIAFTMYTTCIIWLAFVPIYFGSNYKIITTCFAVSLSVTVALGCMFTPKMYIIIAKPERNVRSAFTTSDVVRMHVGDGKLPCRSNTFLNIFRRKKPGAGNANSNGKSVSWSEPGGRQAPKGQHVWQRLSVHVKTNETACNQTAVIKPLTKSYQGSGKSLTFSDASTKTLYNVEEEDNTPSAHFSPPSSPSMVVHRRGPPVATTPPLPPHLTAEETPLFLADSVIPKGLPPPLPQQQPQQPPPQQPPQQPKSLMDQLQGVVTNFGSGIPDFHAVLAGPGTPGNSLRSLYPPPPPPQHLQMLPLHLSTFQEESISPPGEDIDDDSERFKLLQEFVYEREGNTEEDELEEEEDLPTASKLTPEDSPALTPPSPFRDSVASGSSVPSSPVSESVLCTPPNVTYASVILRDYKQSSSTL

T1 sequence (P31424 21-1203): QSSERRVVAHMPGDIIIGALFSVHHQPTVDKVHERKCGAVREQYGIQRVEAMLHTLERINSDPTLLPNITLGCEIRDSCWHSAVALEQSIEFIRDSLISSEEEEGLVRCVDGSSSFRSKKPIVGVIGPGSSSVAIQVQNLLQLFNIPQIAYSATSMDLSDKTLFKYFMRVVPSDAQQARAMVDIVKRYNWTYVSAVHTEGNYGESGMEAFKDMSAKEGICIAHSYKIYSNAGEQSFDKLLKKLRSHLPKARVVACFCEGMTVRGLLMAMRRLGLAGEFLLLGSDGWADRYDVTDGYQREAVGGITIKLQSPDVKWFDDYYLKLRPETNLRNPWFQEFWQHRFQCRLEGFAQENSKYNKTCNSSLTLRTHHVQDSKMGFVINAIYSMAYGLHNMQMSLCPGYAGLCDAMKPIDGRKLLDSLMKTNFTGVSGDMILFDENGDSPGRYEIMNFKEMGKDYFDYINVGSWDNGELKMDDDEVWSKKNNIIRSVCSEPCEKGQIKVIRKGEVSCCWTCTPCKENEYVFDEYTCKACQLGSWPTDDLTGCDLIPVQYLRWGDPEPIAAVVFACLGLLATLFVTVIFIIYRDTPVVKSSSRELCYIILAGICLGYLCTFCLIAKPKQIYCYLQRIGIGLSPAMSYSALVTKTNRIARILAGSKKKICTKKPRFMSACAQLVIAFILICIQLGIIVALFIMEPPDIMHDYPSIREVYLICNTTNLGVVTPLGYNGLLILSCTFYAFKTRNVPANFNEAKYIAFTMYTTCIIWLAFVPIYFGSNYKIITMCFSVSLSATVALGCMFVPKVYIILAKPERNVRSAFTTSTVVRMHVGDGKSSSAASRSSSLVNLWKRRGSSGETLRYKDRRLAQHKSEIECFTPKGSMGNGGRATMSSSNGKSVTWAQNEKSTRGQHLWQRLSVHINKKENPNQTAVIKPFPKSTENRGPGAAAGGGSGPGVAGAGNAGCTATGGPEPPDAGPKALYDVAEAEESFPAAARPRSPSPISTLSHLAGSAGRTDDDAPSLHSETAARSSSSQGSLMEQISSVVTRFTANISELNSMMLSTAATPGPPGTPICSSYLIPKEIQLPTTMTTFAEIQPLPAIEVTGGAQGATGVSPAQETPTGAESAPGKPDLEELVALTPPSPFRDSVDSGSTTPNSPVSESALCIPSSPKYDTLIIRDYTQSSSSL

Question: Which EC50 (mGluR5b) does the source give for `NC(C(=O)O)c1cc(O)ccc1Cl` (racemic) [CHPG, 2-Chloro-5-hydroxyphenylglycine] here?
Answer: Its EC50 is 57 µM.

Question: And the EC50 (mGluR1a)?
Answer: Its EC50 is 80 µM.
